In patent publication US6794383B2, “Heart muscular cell apoptosis inhibitors and remedies/preventives for heart diseases” (Takeda Chemical Industries, Ltd., priority 2000, dated 2004):

system: phosphorylated STAT3 (Tyr705) / gp130 signal; assay: Enhancing action on gp130 signal: LIF-induced phosphorylation of STAT3 (Tyr705) by immunoblotting; type: cell-based, rat; settings: 0.01-10 μM Compound 1 with 10 U/ml human LIF, 30 minutes, primary heart muscle cells from newborn rats, FIG. 1
Source text: STAT3 (signal transducers and activators of transcription-3) is a primary positive regulatory factor involved in transmission of gp130 signal. Phosphorylation of the tyrosine residue at the 705th position (Tyr705) is essential for activation of STAT3. Accordingly, this phosphorylation can be used as an indicator of activation of STAT3, that is, of an enhancing action on gp130 signal.
Primary heart muscle cells derived from newborn rats were stimulated with a small amount of LIF (Leukemia inhibitory factor) to induce gp130 signal in the presence of a test compound (Compound 1 obtained in Reference Example 1). Phosphorylation of Tyr705 was examined by immunoblotting with an antibody specifically recognizing phosphorylated STAT3, to confirm the enhancing action of the test compound on gp130 signal.
The primary heart muscle cells derived from newborn rats, obtained in the method of Experimental Example 1, were suspended at a density of 5×10^6 cells/ml in Medium 199 containing 10% fetal bovine serum, then put to a 12-well plate (ASAHI TECHNO GLASS CORPORATION) in a volume of 2.0 ml/well, and cultured for 1 day in a 5% CO2 incubator set at 37° C. […]

For `O=c1nc(-c2ccccn2)sc2ccccc12` [Compound 1, 2-(2-Pyridyl)-4H-1,3-benzothiazin-4-one], the “phosphorylation of STAT3 induced by LIF” value was “can further promote phosphorylation of STAT3”.

system: primary heart muscle cells derived from newborn rats; assay: Inhibitory activity on heart muscle cell apoptosis (serum-free culture, viable cell number by WST-8); type: cell-based, rat; settings: mean ± SD of three independent experiments; concentration required to increase the mean viable cell number by 30% vs absence of test compound; serum-free Medium 199, 4 days
Source text: Newborn rats (within 1 day after birth) were obtained from pregnant Wister rats purchased from Charles River, anesthetized under ether, and sterilized with 70% ethanol, and then their hearts were excised with tweezers. The excised hearts were washed with a phosphate-buffered physiological saline (T900; Takara) and cut into pieces with surgical scissors. These tissue pieces were washed 4 to 5 times with a phosphate-buffered physiological saline to remove a majority of blood-derived non-heart muscle cells. To the tissue pieces derived from 10 newborns, 5 ml of enzyme solution (1.25 mg trypsin (Difco) and 0.25 mg collagenase (Sigma) per ml of phosphate-buffered saline (PBS)) was added and the mixture was stirred with a stirrer at 37° C. for 15 mins. Another 2.5 ml enzyme solution was then added twice repeatedly at a 15-minutes interval. Then, Medium 199 (Gibco) containing 10% fetal calf serum (Biowiker) was added in a half volume of the enzyme solution to terminate the enzyme reaction. The cells were filtered through a Cell Strainer (Falcon) and then centrifuged at 400×g for 5 minutes, whereby the cells were collected.
The cells thus collected from 10 newborns were suspended in 50 ml Medium 199 containing 10% fetal calf serum, plated onto 100 mm Petri dishes (Iwaki) in a volume of 10 ml/dish and cultured for 1 hour in a CO2 incubator set at 5% CO2 and 37° C. The cells were then recovered, filtered through a Cell Strainer and centrifuged at 400×g for 5 minutes to collect the primary heart muscle cells derived from newborn rats.
Then, the heart muscle cells from 10 newborn rats were suspended in 2 ml low-isotonic solution (prepared by dissolving 8.29 g NH4Cl, 1.0 g KHCO3, 37 mg EDTA/2Na (ethylenediaminetetraacetic acid disodium)(Dojindo) in 1 L of water) and left for 3 minutes to disrupt erythrocytes. After 10 ml Medium 199 containing 10% fetal calf serum was added thereto, the primary heart muscle cells from newborn rats were collected by centrifugation at 400×g for 5 minutes. The cells were suspended in Medium 199 containing 10% fetal calf serum and then filtered through a cell strainer. After 0.3% trypan blue was added to, and mildly mixed with, an aliquot of the resulting cell suspension, the number of heart muscle cells was counted on an erythrocyte counting plate.
The primary heart muscle cells from newborn rats were suspended at a density of 3×10^6 cells/ml in Medium 199 containing 10% fetal calf serum, put onto a 96-well plate in a volume of 0.1 ml/well, and then cultured in a CO2 incubator set at 5% CO2 and 37° C. After the plate was stirred with a micromixer (Taiyo Kagaku Kogyo), the medium was exchanged 3 times with serum-free Medium 199, and then test compounds (Compounds 1 to 5 obtained in Reference Examples) were added thereto. The cells were cultured for additional 4 days to induce apoptosis. Then, fetal calf serum was added thereto at a concentration of 10%, and the cells were further cultured for about 17 hours in a CO2 incubator set at 5% CO2 and 37° C. Finally, the number of viable cells was determined with Cell Counting Kit (Dojindo) using WST-8 (2-(2-methoxy-4-nitrophenyl)-3-(4-nitrophenyl)-5-(2,4-disulfophenyl)-2H-tetrazolium, monosodium salt) as the coloring substrate to determine the inhibition of the heart muscle cell apoptosis.
The above-mentioned exeriment was tripicated in an independent manner. […]

`CCOC(=O)/C=C1\NC(=O)c2ccccc2S1` [Compound 4, Ethyl 2-(4-oxo-3,4-dihydro-2H-1,3-benzothiazin-2-ylidene)acetate] and `O=C1N/C(=C\C(=O)N2CCCCC2)Sc2ccccc21` [Compound 5, 2-[2-oxo-2-(1-piperidinyl)ethylidene]-2,3-dihydro-4H-1,3-benzothiazin-4-one] are within error of each other in “Minimal Effective Concentration” value: 0.019 ± 0.0078 µM for the first, 0.06 ± 0.041 µM for the second.

`O=c1nc(-c2ccccn2)sc2ccccc12` [Compound 1, 2-(2-Pyridyl)-4H-1,3-benzothiazin-4-one] and `O=c1nc(-c2cccnc2)sc2ccccc12` [Compound 2, 2-(3-pyridyl)-4H-1,3-benzothiazin-4-one] are within error of each other in “Minimal Effective Concentration” value: 0.015 ± 0.011 µM for the first, 0.041 ± 0.018 µM for the second.

With `O=c1nc(-c2ccncc2)sc2ccccc12` [Compound 3, 2-(4-pyridyl)-4H-1,3-benzothiazin-4-one] the “Minimal Effective Concentration” value was 0.014 ± 0.0099 µM.
